These results are taken from paper PMC8101546 (Biochimica et biophysica acta. Molecular cell research, 2018).

One assay relates to 23 kDa protein. It counts as binding, human. To be noted: U2OS cell extracts; for IC50: read-out: IC50 for displacement of photolabeling of the 23 kDa protein, [32P]-5N3-8-ethynyl-NAADP (0.23 nM) photoprobe, densitometry.
For a further assay, the system named is 35 kDa protein. It is filed as binding, human. To be noted: U2OS cell extracts; for IC50: read-out: IC50 for displacement of photolabeling of the 35 kDa band, [32P]-5N3-8-ethynyl-NAADP (0.23 nM) photoprobe, densitometry.
Another assay relates to U2OS cells. The experiment in a line: Ca2+ mobilization after microinjection into U2OS cells expressing GCaMP6M. It counts as cell-based, human. To be noted: GCaMP6M fluorescence.
Assay [1] has as its target NAADP receptor. Briefly: Self-desensitization to subsequent 1 μM NAADP in sea urchin egg homogenate. It counts as biochemical, Strongylocentrotus purpuratus. Particulars: read-out: IC50 for desensitization to NAADP-evoked Ca2+ release, subsequent addition of 1 μM NAADP, n = 3, ± STDEV.
Assay [2] addresses NAADP receptor. Briefly: Ca2+ release assay in sea urchin egg homogenate. It is filed as biochemical, Strongylocentrotus purpuratus. To be noted: read-out: Ca2+ mobilizing EC50, fluo-3, n = 3, ± STDEV.

By IC50 is commonly meant the concentration that inhibits the measured activity by half. As a reminder, the EC50 is the concentration at which the effect is half-maximal.

As to `Nc1ncnc2c1ncn2[C@@H]1O[C@H](COP(=O)(O)OP(=O)(O)OCC2OC([n+]3cccc(C(=O)[O-])c3)C(O)C2O)[C@@H](O)[C@H]1OP(=O)(O)O` (stereo in doubt) [NAADP, nicotinic acid adenine dinucleotide 2′-phosphate], the “displacement of 23 kDa photolabeling, more penetrant compared to NADP” value in the assay with 23 kDa protein (ratio of IC50 values NADP/NAADP) is given as ~ 9 fold. Further, the figures for the half-inhibitory concentration (IC50) in the assay with 23 kDa protein and in the assay with 35 kDa protein were 27 ± 1.3 nM and 213 ± 19 nM, respectively. Besides, in the assay with 35 kDa protein (ratio of IC50 values 35 kDa/23 kDa), the “lower affinity of the 35 kDa band in contrast to the 23 kDa band” value is recorded as ~ 8 fold. In addition, the “peak F/F0 (Ca2+ response)” value in the assay with U2OS cells (100 nM in pipette, n = 3 injections) turned out to be 4.01 ± 1.2.

With `C#Cc1nc2c(N)ncnc2n1C1OC(COP(=O)(O)OP(=O)(O)OC[C@H]2O[C@@H]([n+]3cc(N=[N+]=[N-])cc(C(=O)[O-])c3)[C@H](O)[C@@H]2O)C(O)C1OP(=O)(O)O` (some centres unmarked) [5N3-8-ethynyl-NAADP, 5-Azido-8-ethynyl-NAADP], the IC50 at NAADP receptor [1] is 99 ± 7.7 nM. Further, the “peak F/F0 (Ca2+ response)” value is recorded as 2.14 ± 0.37 in the assay with U2OS cells (1 μM in pipette, n = 3) and 2.8 ± 0.33 with U2OS cells (10 μM in pipette, n = 3). At NAADP receptor [2], the EC50 is 2860 ± 400 nM.

In the case of `NC(=O)c1ccc[n+]([C@@H]2O[C@H](COP(=O)([O-])OP(=O)(O)OC[C@H]3O[C@@H](n4cnc5c(N)ncnc54)[C@H](OP(=O)(O)O)[C@@H]3O)[C@@H](O)[C@H]2O)c1` [NADP, nicotinamide adenine dinucleotide 2′-phosphate], the values for the IC50 with 23 kDa protein and in the assay on 35 kDa protein were 246 ± 13 nM and 940 ± 204 nM, respectively.
